Measurements from US8334316B2, “Substituted organosulfur compounds and methods of using thereof” (ACEA Biosciences, Inc., priority 2004, dated 2012).
Where “and” joins values, the source holds several entries; their conditions need not be identical. Equal entries are not always repeated.

How the values were obtained:
[1] = test system: ao10/17 human ovarian cancer; assay: ao10/17 human ovarian cancer xenograft in nude mice (Example 4); assay type: in vivo
[2] = test system: mouse Lewis lung cancer; assay: In vivo antitumor efficacy, mouse Lewis lung cancer model (subcutaneously transplanted), Example 1
Description: Test controls. For the negative control, two groups were set up: the solvent only control group and normal saline control group. […] In the normal saline group, each mouse was administered with 0.5 ml of normal saline, once per day and for 7 or 10 consecutive days. For the positive control group, the anticancer compound, cyclophosphamide (CTX) was administered intraperitoneally at 30 mg/kg, once per day and for 7 or 10 consecutive days.
In the mouse Lewis lung cancer model, 200 mg of DBTS was dissolved in 5 mL castor oil (in polyoxyethlated version). […] The intravenous injection speed was about 0.5 mL/0.5 min.
The dosages and administration of test compounds are within the knowledge of those commonly skilled in pharmacology. For example, the test compounds may be administered by intravenous injection with a test compound solution twice per day and for 7 consecutive days. Alternatively, the test compounds may be administered by intravenous injection with a test compound solution once per day and for 10 consecutive days.
0.2 mL of the tumor cell suspension (between 4 and 8 million tumor cells) was then transplanted back into an experimental mouse by subcutaneous injection. […] Each removed solid tumor was weighted, and the tumor inhibition rate in the DBTS-treated groups and in the CTX-treated group was calculated according to the formula: Tumor inhibition rate %=(average weight of tumor in the negative control group−average weight of tumor in the compound treated group)/average weight of tumor in the negative control group×100 (2)
For the mouse Lewis lung cancer model, the Lewis lung cancer cells were subcutaneously transplanted at approximately 5 million cells per mouse. After 24 hours of the transplantation, each mouse in the test group was administered intravenously with dibenzyl trisulfide at 50, 25, or 12.5 mg/kg per day and for 10 consecutive days. For the positive control group, each mouse was administered with CTX at […] intraperitoneally per day and for 10 consecutive days. For the negative control group, each mouse was administered intravenously either with normal saline, or with the solvent for dibenzyl trisulfide at the same concentration as that in the test group per day and for consecutive 10 days. For each group, 10 mice were used.

[3] = test system: human cancer cell lines (H460, MV522, MCF7, A549, PC3, A431, HT1080, MDA-231, HT29, HCC2998, OVCAR4, A2780); assay: RT-CES system, panel of human cancer cell lines treated with dibenzyl trisulfide; assay type: cell-based; details: 1.5625-100 μM; FIGS. 1-5, 6A, 7-12
Excerpt: The RT-CES system comprises three components, an electronic sensor analyzer, a device station and 16× or 96× microtiter plate devices. Microelectrode sensor array was fabricated on glass slides with lithographical microfabrication methods and the electrode-containing slides are assembled to plastic trays to form electrode-containing wells. Each 16× (or 96×) microtiter plate device used in RT-CES system comprises up to 16 (or 96) such electrode-containing wells. The device station receives the 16× or 96× microtiter plate devices and is capable of electronically switching any one of the wells to the sensor analyzer for impedance measurement. […] Under the RT-CES software control, the sensor analyzer can automatically select wells to be measured and continuously conduct impedance measurements. The impedance data from the analyzer is transferred to a computer, analyzed and processed by the integrated software.
To quantify cell status based on the measured cell-electrode impedance, a parameter termed Cell Index is derived, according to
[formula] where Rb(f) and Rcell(f) are the frequency dependent electrode resistances (a component of impedance) without cells or with cell present, respectively. N is the number of the frequency points at which the impedance is measured. Thus, Cell Index is a quantitative measure of the status of the cells in an electrode-containing well. […]

[4] = test system: mouse sarcoma S180; assay: In vivo antitumor efficacy, mouse sarcoma S180 model (subcutaneously transplanted), Example 1

Fc1ccc(CSSSCc2ccc(F)cc2)cc1 [ACEA100108, Di(p-fluorobenzyl)trisulfide]
Body weight of mice ([1]; 20 mg/kg iv x7 qd, 0 d (beginning)): 17.2 g and 17.2 ± 1.2 g

c1ccc(CSSSCc2ccccc2)cc1 [DBTS, Dibenzyl trisulfide]
Inhibition rate (%) ([2]; 12.5 mg/kg/d iv x10 qd, vs 5% solvent control): 37.38% and 37.28%
Inhibition rate (%) ([2]; 12.5 mg/kg/d iv x10 qd, vs normal saline control): 45.21%
Inhibition rate (%) ([2]; 25 mg/kg/d iv x10 qd, vs 5% solvent control): 44.30%
Inhibition rate (%) ([2]; 25 mg/kg/d iv x10 qd, vs normal saline control): 51.34%
Inhibition rate (%) ([2]; 50 mg/kg/d iv x10 qd, vs 5% solvent control): 62.28%
Inhibition rate (%) ([2]; 50 mg/kg/d iv x10 qd, vs normal saline control): 67.05% and 65%
Effect on proliferation of cancer cell lines (time-dependent cell index) [3]: exhibited inhibitory effect on the proliferation of a number of cancer cell lines
Animal weight (g) end ([4]; 12.5 mg/kg/d iv x7 qd): 24.5 g
Inhibition rate (%) ([4]; 12.5 mg/kg/d iv x7 qd, vs 10% solvent control): 30.46%
Inhibition rate (%) ([4]; 12.5 mg/kg/d iv x7 qd, vs normal saline control): 48.69%
Inhibition rate (%) ([4]; 25 mg/kg/d iv x7 qd, vs 10% solvent control): 38.58%
Inhibition rate (%) ([4]; 25 mg/kg/d iv x7 qd, vs normal saline control): 54.68%
Inhibition rate (%) ([4]; 50 mg/kg/d iv x7 qd, vs 10% solvent control): 50.25%
Inhibition rate (%) ([4]; 50 mg/kg/d iv x7 qd, vs normal saline control): 63.30% and 65%

CC(=O)O[C@H]1C(=O)[C@@]2(C)[C@H]([C@H](OC(=O)c3ccccc3)[C@]3(O)C[C@H](OC(=O)[C@H](O)[C@@H](NC(=O)c4ccccc4)c4ccccc4)C(C)=C1C3(C)C)[C@]1(OC(C)=O)CO[C@@H]1C[C@@H]2O [Taxol, paclitaxel, reference compound]
Mice with palpable tumor / total mice ([1]; 10 mg/kg iv x7 qd, 7 D after transplantation): 2/6
